Source: patent US20130072427A1, “GPR 119 MODULATORS” (Pfizer Inc., priority 2009, published 2013)
Several values for one entry are separate records, joined by “and”; a condition that tells them apart may be missing. Equal entries are not always repeated.

Key:
human GPR119 [1] = biological target: T1, human GPR119 (Homo sapiens, UniProt Q8TDV5); assay: cAMP functional assay (HTRF, hGPR119 HEK-CRE beta-lactamase cells); type: cell-based
T1 construct: host or cells: HEK293-CRE beta-lactamase cells
T1 sequence (Q8TDV5 1-335): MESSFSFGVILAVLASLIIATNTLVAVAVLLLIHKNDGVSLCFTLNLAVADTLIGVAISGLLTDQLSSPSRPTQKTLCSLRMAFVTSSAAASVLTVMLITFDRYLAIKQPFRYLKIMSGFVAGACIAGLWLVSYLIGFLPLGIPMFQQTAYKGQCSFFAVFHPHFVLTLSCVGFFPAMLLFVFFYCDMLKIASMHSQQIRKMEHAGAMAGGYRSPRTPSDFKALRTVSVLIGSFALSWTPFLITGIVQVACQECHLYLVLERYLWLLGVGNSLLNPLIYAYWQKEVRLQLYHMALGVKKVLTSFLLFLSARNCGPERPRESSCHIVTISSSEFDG
Description: GPR119 agonist activity was also determined with a cell-based assay utilizing an HTRF (Homogeneous Time-Resolved Fluorescence) cAMP detection kit (cAMP dynamic 2 Assay Kit; Cis Bio cat #62AM4PEC) that measures cAMP levels in the cell. The method is a competitive immunoassay between native cAMP produced by the cells and the cAMP labeled with the dye d2. The tracer binding is visualized by a Mab anti-cAMP labeled with Cryptate. The specific signal (i.e. energy transfer) is inversely proportional to the concentration of cAMP in either standard or sample.
Specifically, hGPR119HEK-CRE beta-lactamase cells (Invitrogen 2.5×10^7/ml; the same cell line used in the beta-lactamase assay described above) are removed from cryopreservation and diluted in growth medium (Dulbecco's modified Eagle medium high glucose (DMEM; Gibco Cat #11995-065), 1% charcoal dextran treated fetal bovine serum (CD serum; HyClone Cat #SH30068.03), 1×MEM Nonessential amino acids (Gibco Cat #15630-080) and 25 mM HEPES pH 7.0 (Gibco Cat #15630-080)). The cell concentration was adjusted to 1.5×10^5 cells/ml and 30 mls of this suspension was added to a T-175 flask and incubated at 37 degrees Celsius in a humidified environment in 5% carbon dioxide. After 16 hours (overnight), the cells were removed from the T-175 flask (by rapping the side of the flask), centrifuged at 800×g and then re-suspended in assay medium (1×HBSS+CaCl2+MgCl2 (Gibco Cat #14025-092) and 25 mM HEPES pH 7.0 (Gibco Cat #15630-080)). The cell concentration was adjusted to 6.25×10^5 cells/ml with assay medium and 8 μl of this cell suspension (5000 cells) was added to each well of a white Greiner 384-well, low-volume assay plate (VWR cat #82051-458).
Varying concentrations of each compound to be tested were diluted in assay buffer containing 3-isobutyl-1-methylxanthin (IBMX; Sigma cat #15879) and added to the assay plate wells in a volume of 2 microL (final IBMX concentration was 400 microM and final DMSO concentration was 0.58%). Following 30 minutes incubation at room temperature, 5 microL of labeled d2 cAMP and 5 microL of anti-cAMP antibody (both diluted 1:20 in cell lysis buffer; as described in the manufacturers assay protocol) were added to each well of the assay plate. The plates were then incubated at room temperature and after 60 minutes, changes in the HTRF signal were read with an Envision 2104 multilabel plate reader using excitation of 330 nm and emissions of 615 and 665 nm. Raw data were converted to nM cAMP by interpolation from a cAMP standard curve (as described in the manufacturer's assay protocol) and EC50 determinations were made from an agonist-response curves analyzed with a curve fitting program using a 4-paramter logistic dose response equation.

human GPR119 [2] = biological target: T1, human GPR119; assay: Beta-lactamase functional assay (hGPR119 HEK293-CRE beta-lactamase reporter); type: cell-based
Description: The assay for GPR119 agonists utilizes a cell-based (hGPR119 HEK293-CRE beta-lactamase) reporter construct where agonist activation of human GPR119 is coupled to beta-lactamase production via a cyclic AMP response element (CRE). GPR119 activity is then measured utilizing a FRET-enabled beta-lactamase substrate, CCF4-AM (Live Blazer FRET-B/G Loading kit, Invitrogen cat #K1027). Specifically, hGPR119-HEK-CRE-beta-lactamase cells (Invitrogen 2.5×10^7/mL) were removed from liquid nitrogen storage, and diluted in plating medium (Dulbecco's modified Eagle medium high glucose (DMEM; Gibco Cat #11995-065), 10% heat inactivated fetal bovine serum (HIFBS; Sigma Cat #F4135), 1×MEM Nonessential amino acids (Gibco Cat #15630-080), 25 mM HEPES pH 7.0 (Gibco Cat #15630-080), 200 nM potassium clavulanate (Sigma Cat #P3494). The cell concentration was adjusted using cell plating medium and 50 microL of this cell suspension ([…]) was added into each well of a black, clear bottom, poly-d-lysine coated 384-well plate (Greiner Bio-One cat #781946) and incubated at 37 degrees Celsius in a humidified environment containing 5% carbon dioxide. After 4 hours the plating medium was removed and replaced with 40 microL of assay medium (Assay medium is plating medium without potassium clavulanate and HIFBS). Varying concentrations of each compound to be tested was then added in a volume of 10 microL (final DMSO≦0.5%) and the cells were incubated for 16 hours at 37 degrees Celsius in a humidified environment containing 5% carbon dioxide. Plates were removed from the incubator and allowed to equilibrate to room temperature for approximately 15 minutes. 10 microL of 6×CCF4/AM working dye solution (prepared according to instructions in the Live Blazer FRET-B/G Loading kit, Invitrogen cat #K1027) was added per well and incubated at room temperature for 2 hours in the dark. Fluorescence was measured on an EnVision fluorimetric plate reader, excitation 405 nm, emission 460 nm/535 nm. EC50 determinations were made from agonist-response curves analyzed with a curve fitting program using a 4-parameter logistic dose-response equation.

human GPR119 [3] = biological target: T1, human GPR119; assay: GPR119 radioligand binding assay ([3H]Cmpd A, membranes of HEK 293FT cells over-expressing hGPR119); details: competition with 3H-Cmpd A; Ki from IC50 by Cheng-Prusoff; one line per run
Description: HEK 293FT cells (Invitrogen, Carlsbad, Calif.) were grown in a shake flask in 293Freestyle medium (Invitrogen) supplemented with 50 microg/mL neomycin and 10 mM HEPES (37 C, 8% carbon dioxide, shaking). The cells were centrifuged gently (approximately 500×g, 10 minutes) and the pellet resuspended in a mixture of Dulbecco's PBS(minus Mg++/−Ca++) supplemented with 18% fetal bovine serum (Sigma Aldrich) and P1 virus such that the multiplicity of infection (MOI) was 10 and the final cell density was 1.3×10^6/ml (total volume 2.5 liters). The cells were transferred to a 5 liter Wave Bioreactor Wavebag (Wave Technologies, MA) and incubated for 4 hours at 27 degrees Celsius (17 rocks/min, 7 degrees platform angle); at the end of the incubation period, an equal volume (2.5 liters) of 293Freestyle medium supplemented with 30 mM sodium butyrate (Sigma Aldrich) was added (final concentration=15 mM), and the cells were grown for 20 hours (37 degrees Celsius, 8% CO2 [0.2 liters/min}, 25 rocks/minute, 7 degrees platform angle). Cells were harvested via centrifugation (3,000×g, 10 minutes), washed once on DPBS (minus Ca++/Mg++), resuspended in 0.25M sucrose, 25 mM HEPES, 0.5 mM EDTA, pH 7.4 and frozen at −80 degrees Celsius.
The frozen cells were thawed on ice and centrifuged at 700×g (1400 rpm) for 10 minutes at 4 degrees Celsius. The cell pellet was resuspended in 20 ml phosphate-buffered saline, and centrifuged at 1400 rpm for 10 minutes. The cell pellet was then resuspended in homogenization buffer (10 mM HEPES (Gibco #15630), pH 7.5, 1 mM EDTA (BioSolutions, #BIO260-15), 1 mM EGTA (Sigma, #E-4378), 0.01 mg/ml benzamidine (Sigma #B 6506), 0.01 mg/ml bacitracin (Sigma #B 0125), 0.005 mg/ml leupeptin (Sigma #L 8511), 0.005 mg/ml aprotinin (Sigma #A 1153)) and incubated on ice for 10 minutes. Cells were then lysed with 15 gentle strokes of a tight-fitting glass Dounce homogenizer. The homogenate was centrifuged at 1000×g (2200 rpm) for 10 minutes at 4 degrees Celsius. The supernatant was transferred into fresh centrifuge tubes on ice. The cell pellet was resuspended in homogenization buffer, and centrifuged again at 1000×g (2200 rpm) for 10 minutes at 4 degrees Celsius after which the supernatant was removed and the pellet resuspended in homogenization buffer. This process was repeated a third time, after which the supernatants were combined, Benzonase (Novagen #71206) and MgCl2 (Fluka #63020) were added to final concentrations of 1 U/ml and 6 mM, respectively, and incubated on ice for one hour. The solution was then centrifuged at 25,000×g (15000 rpm) for 20 minutes at 4 degrees Celsius, the supernatant was discarded, and the pellet was resuspended in fresh homogenization buffer (minus Benzonase and MgCl2). After repeating the 25,000×g centrifugation step, the final membrane pellet was resuspended in homogenization buffer and frozen at −80 degrees Celsius. The protein concentration was determined using the Pierce BCA protein assay kit (Pierce reagents A #23223 and B #23224).
Test compounds were serially diluted in 100% DMSO (J. T. Baker #922401). 2 microL of each dilution was added to appropriate wells of a 96-well plate (each concentration in triplicate). Unlabeled Cmpd A, at a final concentration of 10 microM, was used to determine non-specific binding.
^3H-Cmpd A was diluted in binding buffer (50 mM Tris-HCl, pH 7.5, (Sigma #T7443), 10 mM MgCl2 (Fluka 63020), 1 mM EDTA (BioSolutions #BIO260-15), 0.15% bovine serum albumin (Sigma #A7511), 0.01 mg/mL benzamidine (Sigma #B 6506), 0.01 mg/mL bacitracin (Sigma #B 0125), 0.005 mg/mL leupeptin (Sigma #L 8511), 0.005 mg/mL aprotinin (Sigma #A 1153)) to a concentration of 60 nM, and 100 microL added to all wells of 96-well plate (Nalge Nunc #267245).
Membranes expressing GPR119 were thawed and diluted to a final concentration of 20 μg/100 microL per well in Binding Buffer, and 100 microL of diluted membranes were added to each well of 96-well plate. […]

[4] = hGPR119 HEK-CRE beta-lactamase cells, HTRF cAMP, 30 minutes, one line per run, read-out: Human cAMP Functional EC50
[5] = percent of maximal activity relative to standard GPR119 agonist (WO2005121121) at 10 μM, one line per run, read-out: Intrinsic Activity* (%) (cAMP)

| SMILES | EC50 (human GPR119 [1]; [4]) | Emax (human GPR119 [1]; [5]) [%] | EC50 (human GPR119 [2]; **the curve was extrapolated to 100% to calculate an EC50, read-out: Human B-lactamase Functional EC50 (nM), curve extrapolated to 100%) [nM] | Emax (human GPR119 [2]; **the curve was extrapolated to 100% to calculate an EC50, read-out: Intrinsic Activity* (%) (B-lactamase), curve extrapolated to 100%) | EC50 (human GPR119 [2]; hGPR119 HEK293-CRE beta-lactamase cells, 16 hours incubation, one line per run, read-out: Human B-lactamase Functional EC50) [nM] | Emax (human GPR119 [2]; percent of maximal activity relative to standard GPR119 agonist (WO2005121121) at 10 microM, one line per run, read-out: Intrinsic Activity* (%) (B-lactamase)) | EC50 (human GPR119 [1]; **the curve was extrapolated to 100% to calculate an EC50, read-out: Human cAMP Functional EC50 (nM), curve extrapolated to 100%) [nM] | Emax (human GPR119 [1]; **the curve was extrapolated to 100% to calculate an EC50, read-out: Intrinsic Activity* (%) (cAMP), curve extrapolated to 100%) | Ki (human GPR119 [3]) [µM] |
| --- | --- | --- | --- | --- | --- | --- | --- | --- | --- |
| Cc1c(O[C@H]2CCN(C(=O)OC(C)C)C[C@H]2F)ncnc1N1Cc2cnn(C)c2C1 (racemic) [Example 13, 1-Isopropyl (3,4-cis)-3-fluoro-4-{[5-methyl-6-(1-methyl-4,6-dihydropyrrolo[3,4-c]pyrazol-5(1H)-yl)pyrimidin-4-yl]oxy}piperidine-1-carboxylate] | 18 nM | 36 |  |  |  |  |  |  |  |
| CC(C)OC(=O)N1CCC(Oc2cc(N3Cc4cnn(C)c4C3)ncn2)CC1 [Example 1, Isopropyl 4-{[6-(1-methyl-4,6-dihydropyrrolo[3,4-c]pyrazol-5(1H)-yl)pyrimidin-4-yl]oxy}piperidine-1-carboxylate] | > 10000 nM |  | 9220 | 100 | 3850 | 116 | 7500 | 100 |  |
| Cc1c(OC2CCN(C(=O)OC3(C)CC3)CC2)ncnc1N1Cc2cnn(C)c2C1 [Example 5, 1-Methylcyclopropyl 4-{[5-methyl-6-(1-methyl-4,6-dihydropyrrolo[3,4-c]pyrazol-5(1H)-yl)pyrimidin-4-yl]oxy}piperidine-1-carboxylate] | 118 nM | 82 |  |  |  |  |  |  |  |
| Cc1c(O[C@H]2[C@@H]3COC[C@H]2CN(C(=O)OC2(C)CC2)C3)ncnc1N1Cc2cnn(C)c2C1 [Example 10, 1-Methylcyclopropyyl (9-anti)-9-{[5-methyl-6-(1-methyl-4,6-dihydropyrrolo[3,4-c]pyrazol-5(1H)-yl)pyrimidin-4-yl]oxy}-3-oxa-7-azabicyclo[3.3.1]nonane-7-carboxylate] | 239 nM and 108 nM |  |  |  |  |  |  |  | 0.026 |
